Source: ChEMBL document CHEMBL4715782, “Multitarget-directed oxoisoaporphine derivatives: Anti-acetylcholinesterase, anti-β-amyloid aggregation and enhanced autophagy activity against Alzheimer's disease” (Bioorg Med Chem, 2016)
Activity calls are given as the source filed them. The calls are words filed in the database; no cut-off is given here.

Test system: Caenorhabditis elegans
Assay: Induction of autophagy in Caenorhabditis elegans BC12921 expressing SQST-1-GFP fusion protein assessed as decrease in fluorescence intensity at 1 uM by microplate reader analysis
Format: functional
Parameters: scale not given: the % may be the effect or the level left
Details: not given

Row | Structure (SMILES) | Activity [%]
1 | O=C(CCN1CCCCC1)Nc1c(Cl)ccc2c1-c1nccc3cccc(c13)C2=O | 26.5
2 | O=C(CCN1CCCCC1)Nc1cccc2c1C(=O)c1cccc3ccnc-2c13 | 28

Test system: Drosophila melanogaster
Assay: In vivo inhibition of AChE in Elav-GAL4/UAS-Abeta42 hybrid Drosophila melanogaster assessed as reduction in intracephalic AChE levels by HPLC analysis
Format: functional
Details: dose 0.1-10 µM

Row | Structure (SMILES) | inhibition
3 | O=C(CCCCCN1CCCCC1)Nc1cccc2c1C(=O)c1cccc3ccnc-2c13 | Dose-dependent effect
4 | O=C(CCCCN1CCCCC1)Nc1cccc2c1C(=O)c1cccc3ccnc-2c13 | Dose-dependent effect
5 | O=C(CN1CCCCC1)Nc1cccc2c1C(=O)c1cccc3ccnc-2c13 | Dose-dependent effect
6 | O=C(CCCCN1CCCCC1)Nc1c(Cl)ccc2c1-c1nccc3cccc(c13)C2=O | Dose-dependent effect
7 | O=C(CCCCCN1CCCCC1)Nc1c(Cl)ccc2c1-c1nccc3cccc(c13)C2=O | Dose-dependent effect
8 | O=C(CCN1CCCCC1)Nc1c(Cl)ccc2c1-c1nccc3cccc(c13)C2=O | Dose-dependent effect
9 | O=C(CCCN1CCCCC1)Nc1c(Cl)ccc2c1-c1nccc3cccc(c13)C2=O | Dose-dependent effect
10 | O=C(CCN1CCCCC1)Nc1cccc2c1C(=O)c1cccc3ccnc-2c13 | Dose-dependent effect
11 | O=C(CN1CCCCC1)Nc1c(Cl)ccc2c1-c1nccc3cccc(c13)C2=O | Dose-dependent effect
12 | O=C(CCCN1CCCCC1)Nc1cccc2c1C(=O)c1cccc3ccnc-2c13 | Dose-dependent effect

Test system: not listed separately
Assay: in vitro
Details: PAMPA
Description: Effective permeability of the compound in PBS/ethanol buffer (9:1) at 25 ug/ml after 10 hrs by UV plate reader based PAMPA-BBB assay

Row | Structure (SMILES) | Papp at 10 h, 25 ug/ml [×10⁻⁶ cm/s]
13 | O=C(CCCCCN1CCCCC1)Nc1cccc2c1C(=O)c1cccc3ccnc-2c13 | 4.92
14 | O=C(CCCCN1CCCCC1)Nc1cccc2c1C(=O)c1cccc3ccnc-2c13 | 6.59
15 | O=C(CN1CCCCC1)Nc1cccc2c1C(=O)c1cccc3ccnc-2c13 | 1.63
16 | O=C(CCCCN1CCCCC1)Nc1c(Cl)ccc2c1-c1nccc3cccc(c13)C2=O | 1.74
17 | O=C(CCCCCN1CCCCC1)Nc1c(Cl)ccc2c1-c1nccc3cccc(c13)C2=O | 2.72
18 | O=C(CCN1CCCCC1)Nc1c(Cl)ccc2c1-c1nccc3cccc(c13)C2=O | 8.24
19 | O=C(CCCN1CCCCC1)Nc1c(Cl)ccc2c1-c1nccc3cccc(c13)C2=O | 2.44
20 | O=C(CCN1CCCCC1)Nc1cccc2c1C(=O)c1cccc3ccnc-2c13 | 2.54
21 | O=C(CN1CCCCC1)Nc1c(Cl)ccc2c1-c1nccc3cccc(c13)C2=O | 1.36
22 | O=C(CCCN1CCCCC1)Nc1cccc2c1C(=O)c1cccc3ccnc-2c13 | 1.52

Species on record: Homo sapiens
Assay: Inhibition of self-induced amyloid beta (1 to 42) (unknown origin) aggregation at 10 uM after 48 hrs by thioflavin-T fluorescence method relative to control
Details: not given

Row | Structure (SMILES) | inhibition [%]
23 | COc1cc(/C=C/C(=O)CC(=O)/C=C/c2ccc(O)c(OC)c2)ccc1O | 45.1
24 | O=C(CCCCCN1CCCCC1)Nc1cccc2c1C(=O)c1cccc3ccnc-2c13 | 55.7
25 | O=C(CCCCN1CCCCC1)Nc1cccc2c1C(=O)c1cccc3ccnc-2c13 | 52.5
26 | O=C(CN1CCCCC1)Nc1cccc2c1C(=O)c1cccc3ccnc-2c13 | 57.6
27 | O=C(CCCCN1CCCCC1)Nc1c(Cl)ccc2c1-c1nccc3cccc(c13)C2=O | 71.2
28 | O=C(CCCCCN1CCCCC1)Nc1c(Cl)ccc2c1-c1nccc3cccc(c13)C2=O | 67.7
29 | O=C(CCN1CCCCC1)Nc1c(Cl)ccc2c1-c1nccc3cccc(c13)C2=O | 74.6
30 | O=C(CCCN1CCCCC1)Nc1c(Cl)ccc2c1-c1nccc3cccc(c13)C2=O | 78.4
31 | O=C(CCN1CCCCC1)Nc1cccc2c1C(=O)c1cccc3ccnc-2c13 | 76.1
32 | O=C(CN1CCCCC1)Nc1c(Cl)ccc2c1-c1nccc3cccc(c13)C2=O | 51.3
33 | O=C(CCCN1CCCCC1)Nc1cccc2c1C(=O)c1cccc3ccnc-2c13 | 61.3

Test system: not listed separately
Assay: (§1) Inhibition of amyloid beta42 secretion in human SH-SY5Y cells overexpressing human APP Swedish mutant at 1 uM incubated for 24 hrs by ELISA
Format: functional
Details: not given

Row | Structure (SMILES) | inhibition at 1 µM [%]
34 | O=C(CCN1CCCCC1)Nc1c(Cl)ccc2c1-c1nccc3cccc(c13)C2=O | 46

Test system: SH-SY5Y
Assay: as §1
Format: functional
Details: not given

Row | Structure (SMILES) | inhibition
35 | O=C(CCN1CCCCC1)Nc1c(Cl)ccc2c1-c1nccc3cccc(c13)C2=O | Active
36 | O=C(CCN1CCCCC1)Nc1cccc2c1C(=O)c1cccc3ccnc-2c13 | Active
37 | O=C(CN1CCCCC1)Nc1c(Cl)ccc2c1-c1nccc3cccc(c13)C2=O | Active
38 | O=C(CCCN1CCCCC1)Nc1cccc2c1C(=O)c1cccc3ccnc-2c13 | Active

Test system: Drosophila melanogaster
Assay: In vivo inhibition of AChE in Elav-GAL4/UAS-Abeta42 hybrid Drosophila melanogaster assessed as reduction in intracephalic AChE levels at 0.1 to 10 uM by HPLC analysis
Format: functional
Details: dose 0.1-10 µM

Row | Structure (SMILES) | inhibition
39 | O=C(CCN1CCCCC1)Nc1c(Cl)ccc2c1-c1nccc3cccc(c13)C2=O | Active
40 | O=C(CCCN1CCCCC1)Nc1c(Cl)ccc2c1-c1nccc3cccc(c13)C2=O | Active
41 | O=C(CCN1CCCCC1)Nc1cccc2c1C(=O)c1cccc3ccnc-2c13 | Active

Molecular target: Acetylcholinesterase (Electrophorus electricus, UniProt O42275)
Sequence (O42275 whole entry): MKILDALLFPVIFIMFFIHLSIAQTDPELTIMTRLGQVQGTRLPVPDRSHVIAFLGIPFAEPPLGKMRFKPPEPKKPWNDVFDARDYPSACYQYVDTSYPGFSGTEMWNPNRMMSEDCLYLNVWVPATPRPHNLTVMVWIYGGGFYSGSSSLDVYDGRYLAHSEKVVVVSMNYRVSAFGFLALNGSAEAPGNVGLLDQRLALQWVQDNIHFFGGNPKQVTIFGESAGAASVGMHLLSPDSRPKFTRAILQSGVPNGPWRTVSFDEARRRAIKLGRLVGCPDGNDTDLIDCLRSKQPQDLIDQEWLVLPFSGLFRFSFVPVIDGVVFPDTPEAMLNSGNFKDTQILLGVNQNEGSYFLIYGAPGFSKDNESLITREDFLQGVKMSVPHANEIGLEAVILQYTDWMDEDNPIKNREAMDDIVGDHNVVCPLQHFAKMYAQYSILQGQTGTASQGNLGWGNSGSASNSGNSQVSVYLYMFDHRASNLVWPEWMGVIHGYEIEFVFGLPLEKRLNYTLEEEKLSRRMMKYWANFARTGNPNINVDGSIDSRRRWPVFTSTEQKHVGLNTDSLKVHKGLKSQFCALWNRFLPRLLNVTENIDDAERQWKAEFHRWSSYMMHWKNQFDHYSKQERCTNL
Assay: Inhibition of electric eel AChE using acetylthiocholine chloride as substrate incubated for 15 mins by Ellman's method
Details: not given

Row | Structure (SMILES) | IC50 [nM]
42 | O=C(CCCCCN1CCCCC1)Nc1cccc2c1C(=O)c1cccc3ccnc-2c13 | 472
43 | O=C(CCCCN1CCCCC1)Nc1cccc2c1C(=O)c1cccc3ccnc-2c13 | 978
44 | O=C(CN1CCCCC1)Nc1cccc2c1C(=O)c1cccc3ccnc-2c13 | 156
45 | O=C(CCCCN1CCCCC1)Nc1c(Cl)ccc2c1-c1nccc3cccc(c13)C2=O | 1800
46 | O=C(CCCCCN1CCCCC1)Nc1c(Cl)ccc2c1-c1nccc3cccc(c13)C2=O | 380
47 | O=C(CCN1CCCCC1)Nc1c(Cl)ccc2c1-c1nccc3cccc(c13)C2=O | 28.4
48 | O=C(CCCN1CCCCC1)Nc1c(Cl)ccc2c1-c1nccc3cccc(c13)C2=O | 148
49 | O=C(CCN1CCCCC1)Nc1cccc2c1C(=O)c1cccc3ccnc-2c13 | 80.8
50 | O=C(CN1CCCCC1)Nc1c(Cl)ccc2c1-c1nccc3cccc(c13)C2=O | 32.1
51 | O=C(CCCN1CCCCC1)Nc1cccc2c1C(=O)c1cccc3ccnc-2c13 | 187

Molecular target: Acetylcholinesterase (Electrophorus electricus) (UniProt O42275)
Sequence (O42275 24-633 limits assumed): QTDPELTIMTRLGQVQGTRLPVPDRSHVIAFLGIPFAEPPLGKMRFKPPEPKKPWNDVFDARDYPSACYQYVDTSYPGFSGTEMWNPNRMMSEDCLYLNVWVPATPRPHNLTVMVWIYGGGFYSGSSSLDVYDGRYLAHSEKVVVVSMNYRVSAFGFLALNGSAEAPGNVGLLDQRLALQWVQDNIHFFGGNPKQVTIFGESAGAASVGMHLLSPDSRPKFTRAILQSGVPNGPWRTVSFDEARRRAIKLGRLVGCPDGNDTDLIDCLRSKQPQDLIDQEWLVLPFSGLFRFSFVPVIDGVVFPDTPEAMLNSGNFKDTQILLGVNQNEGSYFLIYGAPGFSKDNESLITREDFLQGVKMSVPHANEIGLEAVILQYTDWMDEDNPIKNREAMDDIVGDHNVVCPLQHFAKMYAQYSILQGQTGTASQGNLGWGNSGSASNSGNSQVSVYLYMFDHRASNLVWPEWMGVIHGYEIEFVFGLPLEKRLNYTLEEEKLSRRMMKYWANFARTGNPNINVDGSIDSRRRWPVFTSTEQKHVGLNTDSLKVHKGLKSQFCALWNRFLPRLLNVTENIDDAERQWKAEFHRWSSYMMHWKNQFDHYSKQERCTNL
Assay: Mixed type inhibition of electric eel AChE using acetylthiocholine chloride as substrate preincubated for 15 mins followed by substrate addition by reciprocal plot analysis
Details: not given

Row | Structure (SMILES) | inhibition
52 | O=C(CCN1CCCCC1)Nc1c(Cl)ccc2c1-c1nccc3cccc(c13)C2=O | Active
53 | O=C(CCN1CCCCC1)Nc1cccc2c1C(=O)c1cccc3ccnc-2c13 | Active
